Source: US20230414506A1, “PEPTIDE FORMULATIONS AND METHODS OF USE” (REALTA LIFE SCIENCES, INC., priority 2020, published 2023)
Ends that are not written are not given here. dPEG24 = C-terminal PEG24

Tests used:
[1] = format: physicochemical; details: 20% Intralipid, 4° C. for 48 hours
[2] = tested on: complement activity (human O sera and AB red blood cells); assay: ABO incompatibility CH50-type hemolytic assay of peptides formulated with different excipients; format: biochemical; details: for Inhibition of complement activation in the hemolytic assay: formulated in citrate, ascorbate and methionine, compared to histidine formulation
Experimental: To ascertain if these various excipients had any effect on the functional activity of PA-dPEG24 and PA-I8Sar, the formulated peptides were tested in a hemolytic assay to determine the ability of these molecules to inhibit complement activity. For hemolytic complement assays, human red blood cells (RBCs) from type AB donors were purified, washed and standardized to 1×10^9 cells/ml, as previously described. Human sera from type O donors at a 20% final concentration was combined with increasing concentrations of the formulated peptides and the volume was brought up to 0.15 ml with GVBS++ buffer and […] RBCs. The samples were spun at 3,000 rpm for 5 minutes and the supernatant was collected and read at 412 nm. Values are represented as a percent of the positive control, which consists of human O sera and AB red blood cells in GVBS++ buffer without peptide addition.

[3] = cited from earlier work
[4] = Gelling of citrate buffer formulation; format: physicochemical; details: 80 mg/ml, pH 6.8
Experimental: For the citrate buffer conditions, PA-dPEG24 and PA-I8Sar were formulated at a concentration of 80 mg/ml at pH 6.8. […] This gelling behavior was not observed for PA-I8Sar.

[5] = Aqueous solubility of the peptides; format: physicochemical

Row | Substance | Appearance of Intralipid mixture on standing [1] | Complement inhibiting activity compared between excipients ([2]; ascorbate, citrate, histidine, methionine formulations) | Inhibition of complement activation in the hemolytic assay [2] | Aqueous solubility [3] | Gelling behavior [4] | Solubility studies, character of the peptide [5]
1 | IALILEPICCQERAA [PA] | became paste-like | – | – | – | – | –
2 | IALILEPICCQERAA-dPEG24 (cysteine pairing not given here) [PA-dPEG24, PIC1 peptide with a C-terminal monodisperse 24-mer PEGylated moiety] | – | slightly increased complement inhibiting activity compared to peptide formulated in methionine | able to maintain dose-dependent inhibition of complement activation | highly soluble | would start to gel if not kept on ice | –
3 | IALILEP(Sar)CCQERAA [PA-I8Sar] | – | – | able to maintain dose-dependent inhibition of complement activation | – | not observed | amphipathic
